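How tested: cells in 96-well plates exposed to compound for 48 hours at five concentrations. The concentration for 50% growth inhibition is given as GI50. TGI is the concentration that stops growth completely.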
Experiments:
Assay in all cases: NCI anticancer screen, dose series, 48 h
TK-10 renal = test system: TK-10 renal
BT-549 breast = test system: BT-549 breast
KM12 colon = test system: KM12 colon
UACC-62 melanoma = test system: UACC-62 melanoma
MOLT-4 leukemia = test system: MOLT-4 leukemia
SNB-19 CNS = test system: SNB-19 CNS
IGROV1 ovarian = test system: IGROV1 ovarian
SR leukemia = test system: SR leukemia
NCI-H460 lung = test system: NCI-H460 lung
MDA-N = test system: MDA-N
OVCAR-8 ovarian = test system: OVCAR-8 ovarian
SF-539 CNS = test system: SF-539 CNS
SNB-75 CNS = test system: SNB-75 CNS
DU-145 prostate = test system: DU-145 prostate
MCF7 breast = test system: MCF7 breast
SK-MEL-28 melanoma = test system: SK-MEL-28 melanoma
OVCAR-3 ovarian = test system: OVCAR-3 ovarian
HCT-15 colon = test system: HCT-15 colon
A498 renal = test system: A498 renal
OVCAR-4 ovarian = test system: OVCAR-4 ovarian
SK-OV-3 ovarian = test system: SK-OV-3 ovarian
NCI-H23 lung = test system: NCI-H23 lung
RPMI-8226 leukemia = test system: RPMI-8226 leukemia
PC-3 prostate = test system: PC-3 prostate
ACHN renal = test system: ACHN renal
NCI/ADR-RES ovarian = test system: NCI/ADR-RES ovarian
SK-MEL-2 melanoma = test system: SK-MEL-2 melanoma
NCI-H522 lung = test system: NCI-H522 lung
HCC-2998 colon = test system: HCC-2998 colon
RXF 393 renal = test system: RXF 393 renal
NCI-H226 lung = test system: NCI-H226 lung
COLO 205 colon = test system: COLO 205 colon
U251 CNS = test system: U251 CNS
MDA-MB-435 = test system: MDA-MB-435
SW-620 colon = test system: SW-620 colon
LOX IMVI melanoma = test system: LOX IMVI melanoma
HT29 colon = test system: HT29 colon
EKVX NSCLC = test system: EKVX NSCLC
UO-31 renal = test system: UO-31 renal
HCT-116 colon = test system: HCT-116 colon
SK-MEL-5 melanoma = test system: SK-MEL-5 melanoma
786-0 renal = test system: 786-0 renal
MDA-MB-231 breast = test system: MDA-MB-231 breast
MALME-3M melanoma = test system: MALME-3M melanoma
M14 melanoma = test system: M14 melanoma
UACC-257 melanoma = test system: UACC-257 melanoma
T-47D breast = test system: T-47D breast
CCRF-CEM leukemia = test system: CCRF-CEM leukemia
HL-60(TB) leukemia = test system: HL-60(TB) leukemia
HOP-62 NSCLC = test system: HOP-62 NSCLC
SF-295 CNS = test system: SF-295 CNS
HS 578T breast = test system: HS 578T breast
OVCAR-5 ovarian = test system: OVCAR-5 ovarian
HOP-92 NSCLC = test system: HOP-92 NSCLC
SF-268 CNS = test system: SF-268 CNS
SN12C renal = test system: SN12C renal
CAKI-1 renal = test system: CAKI-1 renal
K-562 leukemia = test system: K-562 leukemia
A549 NSCLC = test system: A549 NSCLC
DLD-1 colon = test system: DLD-1 colon
KM20L2 colon = test system: KM20L2 colon
DMS 273 small cell lung = test system: DMS 273 small cell lung
LXFL 529 NSCLC = test system: LXFL 529 NSCLC
M19-MEL melanoma = test system: M19-MEL melanoma

## N#C/C(=C/NC(=S)NCc1ccccc1)C(N)=O
TK-10 renal
  GI50: > 100 µM
  TGI: > 100 µM
BT-549 breast
  GI50: > 100 µM
  TGI: > 100 µM
KM12 colon
  TGI: > 100 µM
UACC-62 melanoma
  TGI: > 100 µM
MOLT-4 leukemia
  TGI: > 100 µM
SNB-19 CNS
  TGI: > 100 µM
IGROV1 ovarian
  TGI: > 100 µM
SR leukemia
  TGI: > 100 µM
NCI-H460 lung
  TGI: > 100 µM
MDA-N
  TGI: > 100 µM
OVCAR-8 ovarian
  TGI: > 100 µM
SF-539 CNS
  TGI: > 100 µM
SNB-75 CNS
  TGI: > 100 µM
DU-145 prostate
  TGI: > 100 µM
MCF7 breast
  TGI: > 100 µM
SK-MEL-28 melanoma
  TGI: > 100 µM
OVCAR-3 ovarian
  TGI: > 86.1 µM
HCT-15 colon
  TGI: > 100 µM
A498 renal
  TGI: > 100 µM
OVCAR-4 ovarian
  TGI: > 100 µM
SK-OV-3 ovarian
  TGI: > 100 µM
NCI-H23 lung
  TGI: > 100 µM
RPMI-8226 leukemia
  TGI: > 100 µM
PC-3 prostate
  TGI: > 100 µM
ACHN renal
  TGI: > 100 µM
NCI/ADR-RES ovarian
  TGI: > 100 µM
SK-MEL-2 melanoma
  TGI: > 100 µM
NCI-H522 lung
  TGI: > 100 µM
HCC-2998 colon
  TGI: > 100 µM
RXF 393 renal
  TGI: > 100 µM
NCI-H226 lung
  TGI: > 100 µM
COLO 205 colon
  TGI: > 100 µM
U251 CNS
  TGI: > 100 µM
MDA-MB-435
  TGI: > 100 µM
SW-620 colon
  TGI: > 100 µM
LOX IMVI melanoma
  TGI: > 100 µM
HT29 colon
  TGI: > 100 µM
EKVX NSCLC
  TGI: > 100 µM
UO-31 renal
  TGI: > 100 µM
HCT-116 colon
  TGI: > 100 µM
SK-MEL-5 melanoma
  TGI: > 100 µM
786-0 renal
  TGI: > 100 µM
MDA-MB-231 breast
  TGI: > 100 µM
MALME-3M melanoma
  TGI: > 100 µM
M14 melanoma
  TGI: > 100 µM
UACC-257 melanoma
  TGI: > 100 µM
T-47D breast
  TGI: > 100 µM
CCRF-CEM leukemia
  TGI: > 100 µM
HL-60(TB) leukemia
  TGI: > 100 µM
HOP-62 NSCLC
  TGI: > 100 µM
SF-295 CNS
  TGI: > 100 µM
HS 578T breast
  TGI: > 100 µM
OVCAR-5 ovarian
  TGI: > 100 µM
HOP-92 NSCLC
  TGI: > 100 µM
SF-268 CNS
  TGI: > 100 µM
SN12C renal
  TGI: > 100 µM
CAKI-1 renal
  TGI: > 100 µM
K-562 leukemia
  TGI: > 100 µM
A549 NSCLC
  TGI: > 100 µM

## Cc1cc2c(=O)cc(-c3cccs3)oc2c(C(=O)O)c1C
TK-10 renal
  TGI: > 100 µM
KM12 colon
  TGI: > 100 µM
UACC-62 melanoma
  TGI: > 100 µM
DLD-1 colon
  TGI: > 100 µM
MOLT-4 leukemia
  TGI: > 100 µM
SNB-19 CNS
  TGI: > 100 µM
IGROV1 ovarian
  TGI: > 100 µM
NCI-H460 lung
  TGI: > 100 µM
KM20L2 colon
  TGI: > 100 µM
OVCAR-8 ovarian
  TGI: > 100 µM
SNB-75 CNS
  TGI: 37.6 µM
SK-MEL-28 melanoma
  TGI: > 100 µM
OVCAR-3 ovarian
  TGI: > 100 µM
HCT-15 colon
  TGI: > 100 µM
A498 renal
  TGI: > 100 µM
OVCAR-4 ovarian
  TGI: > 100 µM
SK-OV-3 ovarian
  TGI: > 100 µM
NCI-H23 lung
  TGI: > 100 µM
RPMI-8226 leukemia
  TGI: > 100 µM
ACHN renal
  TGI: > 100 µM
SK-MEL-2 melanoma
  TGI: > 100 µM
NCI-H522 lung
  TGI: 48.4 µM
HCC-2998 colon
  TGI: > 100 µM
COLO 205 colon
  TGI: > 100 µM
U251 CNS
  TGI: > 100 µM
DMS 273 small cell lung
  TGI: > 100 µM
SW-620 colon
  TGI: > 100 µM
LOX IMVI melanoma
  TGI: > 100 µM
LXFL 529 NSCLC
  TGI: > 100 µM
HT29 colon
  TGI: > 100 µM
EKVX NSCLC
  TGI: > 100 µM
UO-31 renal
  TGI: > 100 µM
HCT-116 colon
  TGI: > 100 µM
SK-MEL-5 melanoma
  TGI: > 100 µM
786-0 renal
  TGI: > 100 µM
MALME-3M melanoma
  TGI: > 100 µM
M14 melanoma
  TGI: > 100 µM
UACC-257 melanoma
  TGI: > 100 µM
CCRF-CEM leukemia
  TGI: > 100 µM
HOP-62 NSCLC
  TGI: > 100 µM
SF-295 CNS
  TGI: > 100 µM
OVCAR-5 ovarian
  TGI: > 100 µM
HOP-92 NSCLC
  TGI: > 100 µM
SF-268 CNS
  TGI: > 100 µM
M19-MEL melanoma
  TGI: > 100 µM
SN12C renal
  TGI: > 100 µM
K-562 leukemia
  TGI: > 100 µM
A549 NSCLC
  TGI: > 100 µM
